Bladder capacity, bladder pressure and EC50 data for 14 compounds are collected here from patent publication US8399480B2, “Hydroxymethyl pyrrolidines as beta 3 adrenergic receptor agonists” (Merck Sharp & Dohme Corp., priority 2008, dated 2013).

For one assay, the target named is T1, β3AR (Rattus norvegicus, UniProt P26255).
T1 construct: host or cells: rat, in vivo (bladder)
To be noted: rats, intravenous administration, cited from earlier work.

The target of assay [1] is T2, human β3 adrenergic receptor (Homo sapiens, UniProt P13945).
T2 construct: expressed in transfected cells; host or cells: Chinese hamster ovary (CHO) cells, stably transfected
Briefly: Functional assay: cAMP production (LANCE TR-FRET) in CHO cells stably transfected with cloned β3 adrenergic receptor. Type of assay: cell-based. A digest of the protocol: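 Agonist-stimulated cAMP in CHO cells stably expressing human β3 receptor, 6,000 cells per well in HBSS/HEPES/0.1% BSA with 0.6 mM IBMX, 30 min at room temperature. LANCE TR-FRET readout converted to cAMP via standard curve; maximal stimulation defined with isoproterenol.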
Background: Cyclic AMP is a second messenger, typically raised through Gs and lowered through Gi signalling.

The mark [2] stands for this setting: Table 10, β3AR-cAMP, read-out: Human β3 Functional.
The mark [3] stands for this setting: Table 11, read-out: Human β3 Functional.
The mark [4] stands for this setting: human β3 functional activity, shown as ranges, Table 13, read-out: Human β3 Functional.
Where [5] appears, read: given as a range, cAMP, CHO cells, read-out: human β3 functional activity.

Molecules are shown by their SMILES. Like-named read-outs stand apart in the source and are kept apart here. Bounds are passed on as bounds.

T2 sequence (P13945 whole entry): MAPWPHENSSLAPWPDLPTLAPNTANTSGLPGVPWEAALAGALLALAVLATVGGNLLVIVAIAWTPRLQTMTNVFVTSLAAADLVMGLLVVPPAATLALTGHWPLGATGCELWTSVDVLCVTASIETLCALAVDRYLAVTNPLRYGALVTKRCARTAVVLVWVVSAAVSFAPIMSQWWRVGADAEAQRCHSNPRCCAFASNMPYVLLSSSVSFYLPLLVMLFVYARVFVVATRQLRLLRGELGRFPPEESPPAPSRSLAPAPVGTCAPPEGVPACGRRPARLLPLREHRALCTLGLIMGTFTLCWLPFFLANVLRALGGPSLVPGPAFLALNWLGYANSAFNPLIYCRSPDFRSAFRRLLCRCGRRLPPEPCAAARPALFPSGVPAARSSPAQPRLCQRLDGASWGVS
T1 sequence (P26255 whole entry): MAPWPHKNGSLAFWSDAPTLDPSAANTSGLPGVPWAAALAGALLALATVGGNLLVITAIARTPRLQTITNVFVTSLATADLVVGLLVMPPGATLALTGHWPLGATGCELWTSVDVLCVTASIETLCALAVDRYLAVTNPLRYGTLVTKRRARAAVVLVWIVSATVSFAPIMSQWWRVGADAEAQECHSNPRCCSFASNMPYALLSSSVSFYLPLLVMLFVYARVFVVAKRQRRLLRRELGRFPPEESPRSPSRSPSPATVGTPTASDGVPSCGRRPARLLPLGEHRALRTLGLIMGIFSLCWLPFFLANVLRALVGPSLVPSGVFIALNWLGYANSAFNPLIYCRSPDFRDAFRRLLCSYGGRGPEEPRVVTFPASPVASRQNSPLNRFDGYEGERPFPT

In the case of `C[C@H](Cc1ccc2c(c1)OC(C(=O)[O-])(C(=O)[O-])O2)NC[C@H](O)c1cccc(Cl)c1.[Na+].[Na+]` [CL316243], on β3AR (cystometric studies, prolonged micturition interval without increasing residual urine volume), the bladder capacity entry is on record as “increases bladder capacity”. For the same compound, on β3AR, the bladder pressure result is on record as “reduces bladder pressure”. For `O=C(Nc1ccc(C[C@@H]2CC[C@H]([C@H](O)c3cccc(F)c3)N2)cc1)[C@H]1CCc2scnc21` [Example 278], the EC50 in assay [1] (setting [2]) was 0.011 to 0.1 µM. The same measure, in the same setting: with `O=C(Nc1ccc(CC2CCC(C(O)c3cccc(F)c3)N2)cc1)C1CCc2scnc21` (stereo not drawn) [Example 279] the figure was below 0.001 µM. Still for that read-out and setting: with `Cc1nnc(CC(=O)Nc2ccc(C[C@@H]3CC[C@H]([C@H](O)c4cccc(F)c4)N3)cc2)[nH]1` [Example 280] the figure was 0.001 to 0.01 µM. Still for that read-out and setting: with `O=C(Cn1ncccc1=O)Nc1ccc(C[C@@H]2CC[C@H]([C@H](O)c3cccc(F)c3)N2)cc1` [Example 281] the figure was 0.001 to 0.01 µM. On to `O=C(Nc1ccc(C[C@@H]2CC[C@H]([C@H](O)c3ccc(F)cc3)N2)cc1)[C@@H]1CCc2scnc21` [Example 284], for which the EC50 in assay [1] (setting [3]) is below 0.001 µM.

`O=C(Cn1ncccc1=O)Nc1ccc(C[C@@H]2CC[C@H]([C@H](O)c3ccc(F)cc3)N2)cc1` [Example 287]: the EC50 in assay [1] (setting [3]) fell in the range of 0.001 to 0.01 µM. In the case of `O=C(Nc1ccc(C[C@@H]2CC[C@H]([C@H](O)c3ccc(F)c(F)c3)N2)cc1)[C@@H]1CCc2scnc21` [Example 290], in assay [1] (Table 12, read-out: Human β3 Functional), the EC50 is below 0.001 µM. For `O=C(Nc1ccc(C[C@@H]2CC[C@H]([C@H](O)c3cccc(Cl)c3)N2)cc1)[C@H]1CCc2scnc21` [Example 296], the EC50 in assay [1] (setting [4]) was 0.011 to 0.1 µM. Same read-out and setting: under `O=C(Nc1ccc(C[C@@H]2CC[C@H]([C@H](O)c3cccc(Cl)c3)N2)cc1)[C@@H]1CCc2scnc21` [Example 297] stands below 0.001 µM; under `Nc1nc(CC(=O)Nc2ccc(C[C@@H]3CC[C@H]([C@H](O)c4cccc(Cl)c4)N3)cc2)cs1` [Example 304], 0.001 to 0.01 µM. The same measure, in the same setting: with `O=C(Cn1ncccc1=O)Nc1ccc(C[C@@H]2CC[C@H]([C@H](O)c3cccc(Cl)c3)N2)cc1` [Example 305] the figure was 0.011 to 0.1 µM. For `Nc1nc(CC(=O)Nc2ccc(C[C@@H]3CC[C@H]([C@H](O)c4ccccc4)N3)cc2Br)cs1` [Example 312, 2-(2-Amino-1,3-thiazol-4-yl)-N-[2-bromo-4-({(2S,5R)-5-[(R)-hydroxy(phenyl)methyl]pyrrolidin-2-yl}methyl)phenyl]acetamide], in assay [1] (setting [5]), the EC50 lay within 0.011 to 0.1 µM.

Take `Nc1nc(CC(=O)Nc2ccc(C[C@H]3CC[C@H]([C@H](O)c4ccccc4)N3)cc2Br)cs1` [Example 313, 2-(2-Amino-1,3-thiazol-4-yl)-N-[2-bromo-4-({(2R,5R)-5-[(R)-hydroxy(phenyl)methyl]pyrrolidin-2-yl}methyl)phenyl]acetamide]: the EC50 in assay [1] (setting [5]) lay in the range of 0.101 to 1 µM.
